The results in this text go back to patent publication US10440974B2, “Methionine-rich composition for feeding animals” (Evonik Degussa GmbH, priority 2009, dated 2019).

Data set [1] can be described thus: physchem. An excerpt:
The third step consists in crystallizing the methionine so as to recover the crude methionine in solid form. This crystallization step can be carried out by means of technology chosen from the group consisting of crystallization by cooling, crystallization by evaporation-crystallization and adiabatic crystallization. The applicant company recommends using evaporation-crystallization. If evaporation-crystallization is selected, the applicant company recommends pre-concentrating the crude methionine solution by vacuum evaporation using a falling-film evaporator in order to approach supersaturation. The pre-concentrated solution is therefore transferred into a crystallizer of Draft tube type, for example, so as to be further concentrated and crystallized therein. […] Under these conditions, and by virtue of the removal of the soluble impurities, the solid methionine crystallizes in the form of spongy spheres which are easy to separate from the mother liquors.

Data set [2] has as its system broiler chickens. The procedure: The crude methionine previously obtained in solid form is added to a basic feed for broiler chickens.
The basic feed has the following composition:
The animals are divided up into groups and fed with the basic feed as control, or with a feed supplemented with crude methionine according to the invention, and then weighed at 1 day, 14 days and 28 days.

In brackets after ≈: the same amount, converted by molar mass.

The solubility is how much of the substance goes into solution per volume. Read a high solubility as a readily soluble substance.

Consider `CSCC[C@H](N)C(=O)O` [methionine, L-Methionine], for which the solubility in data set [1] (35 °C) was roughly 70 mg/mL (≈ 469 mM). In data set [1] (at 50° C.), this molecule came in with a supersaturation of 80 g/L.

Regarding `CSCCC(N)C(=O)O` (racemic) [DL-methionine of chemical origin, DL-methionine], the “optimum efficiency, added methionine” value in data set [2] (added to basic feed) is listed as “approximately 0.19%”. Also, in data set [2] (basic feed has a methionine content of about 0.29%), the “optimum efficiency, methionine in the final feed” value is “approximately 0.48%”.
